ChEMBL document CHEMBL1129506, “2,4-Diarylpyrrolidine-3-carboxylic acids--potent ETA selective endothelin receptor antagonists. 1. Discovery of A-127722” (J Med Chem, 1996)

Experiments:
[1] = molecular target: T1, Endothelin receptor type B (Sus scrofa, UniProt P35463); assay: Inhibitory activity measured against Endothelin B receptor binding to porcine cerebellum; assay type: tissue-based
T1 sequence (P35463 whole entry): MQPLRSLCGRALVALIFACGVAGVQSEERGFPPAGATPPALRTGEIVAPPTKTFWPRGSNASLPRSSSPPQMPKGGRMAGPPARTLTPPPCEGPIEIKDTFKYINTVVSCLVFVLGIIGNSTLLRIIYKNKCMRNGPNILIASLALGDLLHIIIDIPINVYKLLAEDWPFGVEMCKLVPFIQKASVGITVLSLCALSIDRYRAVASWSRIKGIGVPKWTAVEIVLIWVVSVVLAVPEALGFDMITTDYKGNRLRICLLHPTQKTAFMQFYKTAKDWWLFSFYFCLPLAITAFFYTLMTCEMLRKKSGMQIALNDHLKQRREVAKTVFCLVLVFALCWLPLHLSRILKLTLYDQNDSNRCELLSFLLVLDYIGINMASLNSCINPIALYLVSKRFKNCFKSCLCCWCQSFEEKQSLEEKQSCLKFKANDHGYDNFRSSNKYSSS

Endothelin-1 receptor = molecular target: T2, Endothelin-1 receptor (Rattus norvegicus, UniProt P26684); assay: Inhibitory activity against the Endothelin A receptor of rat MMQ cells; assay type: cell-based
T2 sequence (P26684 whole entry): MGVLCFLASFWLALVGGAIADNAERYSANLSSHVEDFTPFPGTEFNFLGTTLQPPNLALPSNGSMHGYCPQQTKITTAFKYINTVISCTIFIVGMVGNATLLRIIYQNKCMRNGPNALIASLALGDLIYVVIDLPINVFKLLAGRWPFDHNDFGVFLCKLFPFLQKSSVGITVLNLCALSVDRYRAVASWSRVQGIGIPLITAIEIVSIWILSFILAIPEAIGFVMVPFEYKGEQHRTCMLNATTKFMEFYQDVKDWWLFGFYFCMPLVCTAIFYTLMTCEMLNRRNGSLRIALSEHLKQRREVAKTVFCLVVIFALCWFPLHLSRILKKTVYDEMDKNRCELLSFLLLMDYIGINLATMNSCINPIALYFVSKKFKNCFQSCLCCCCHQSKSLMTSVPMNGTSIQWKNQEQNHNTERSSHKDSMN

Endothelin receptor = molecular target: T3, Endothelin receptor (Rattus norvegicus, UniProt P26684+P21451); assay: Inhibition of phosphoinositol hydrolysis of MMQ cells.; assay type: functional, cell-based
T3 sequence (P26684 whole entry): T2 sequence (P26684 whole entry)
T3 sequence (P21451 whole entry): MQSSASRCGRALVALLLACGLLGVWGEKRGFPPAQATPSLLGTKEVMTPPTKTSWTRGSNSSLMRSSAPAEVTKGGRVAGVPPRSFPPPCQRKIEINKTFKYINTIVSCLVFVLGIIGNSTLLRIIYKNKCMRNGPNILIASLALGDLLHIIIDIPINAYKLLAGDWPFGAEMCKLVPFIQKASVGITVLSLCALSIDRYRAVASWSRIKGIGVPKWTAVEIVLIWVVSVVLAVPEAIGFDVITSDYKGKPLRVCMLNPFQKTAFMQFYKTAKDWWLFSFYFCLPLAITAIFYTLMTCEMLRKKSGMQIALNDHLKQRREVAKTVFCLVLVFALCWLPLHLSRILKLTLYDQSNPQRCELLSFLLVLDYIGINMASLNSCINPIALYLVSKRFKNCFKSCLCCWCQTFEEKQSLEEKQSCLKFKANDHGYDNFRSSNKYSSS

Structure (SMILES)	IC50 [1] [nM]	IC50 (Endothelin-1 receptor) [nM]	IC50 (Endothelin receptor) [nM]
CCCC(CCC)C(=O)CN1C[C@@H](c2ccc3c(c2)OCO3)[C@H](C(=O)O)[C@H]1c1ccc(OC)cc1	283	85	–
COc1ccc([C@@H]2[C@@H](C(=O)O)[C@H](c3ccc4c(c3)OCO4)CN2C(=O)COc2ccc(F)cc2)cc1	12700	–	–
COc1ccc([C@@H]2[C@@H](C(=O)O)[C@H](c3ccc4c(c3)OCO4)CN2C/C=C/CC(C)C)cc1	27300	1630	–
COCCNC(=O)CN1C[C@@H](c2ccc3c(c2)OCO3)[C@H](C(=O)O)[C@H]1c1ccc(OC)cc1	3730	178	–
CCCCCN(C)C(=O)CN1C[C@@H](c2ccc3c(c2)OCO3)[C@H](C(=O)O)[C@H]1c1ccc(OC)cc1	624	5.78	5.64
CCCCN(CCCC)C(=O)N1C[C@@H](c2ccc3c(c2)OCO3)[C@H](C(=O)O)[C@H]1c1ccc(OC)cc1	1470	396	–
CCCS(=O)(=O)CCN1C[C@@H](c2ccc3c(c2)OCO3)[C@H](C(=O)O)[C@H]1c1ccc(OC)cc1	750	37	–
CCCCCCN1C[C@@H](c2ccc3c(c2)OCO3)[C@H](C(=O)O)[C@H]1c1ccc(OC)cc1	23300	2870	–
CCCCN(CCCC)CC(=O)N1C[C@@H](c2ccc3c(c2)OCO3)[C@H](C(=O)O)[C@H]1c1ccc(OC)cc1	29400	6810	–
CC[S+]([O-])CCN1C[C@@H](c2ccc3c(c2)OCO3)[C@H](C(=O)O)[C@H]1c1ccc(OC)cc1 (some centres undefined)	834	44	–
COc1ccc([C@@H]2[C@@H](C(=O)O)[C@H](c3ccc4c(c3)OCO4)CN2CCc2ccccn2)cc1	2360	900	–
COc1ccc([C@@H]2[C@@H](C(=O)O)[C@H](c3ccc4c(c3)OCO4)CN2CC(=O)N(C)CC(C)C)cc1	1050	1.88	0.28
COc1ccc([C@@H]2[C@@H](C(=O)O)[C@H](c3ccc4c(c3)OCO4)CN2Cc2ccc(F)cc2)cc1	7930	4320	–
C#CCN(C)C(=O)CN1C[C@@H](c2ccc3c(c2)OCO3)[C@H](C(=O)O)[C@H]1c1ccc(OC)cc1	4000	106	–
COc1ccc([C@@H]2[C@@H](C(=O)O)[C@H](c3ccc4c(c3)OCO4)CN2CC(=O)N(C)c2ccccc2)cc1	1180	50.2	–
COc1ccc([C@@H]2[C@@H](C(=O)O)[C@H](c3ccc4c(c3)OCO4)CN2CCOCC(C)C)cc1	8380	437	–
CCN(CC)C(=O)CN1C[C@@H](c2ccc3c(c2)OCO3)[C@H](C(=O)O)[C@H]1c1ccc(OC)cc1	5250	32.9	2.26
COc1ccc([C@@H]2[C@@H](C(=O)O)[C@H](c3ccc4c(c3)OCO4)CN2CC(=O)NCC(C)C)cc1	184	8.2	9.22
COc1ccc([C@@H]2[C@@H](C(=O)O)[C@H](c3ccc4c(c3)OCO4)CN2C(=O)c2ccco2)cc1	40300	5220	–
CCCCN(C(=O)CN1C[C@@H](c2ccc3c(c2)OCO3)[C@H](C(=O)O)[C@H]1c1ccc(OC)cc1)c1ccccc1	306	0.81	–
C=CCNC(=O)CN1C[C@@H](c2ccc3c(c2)OCO3)[C@H](C(=O)O)[C@H]1c1ccc(OC)cc1	889	34.2	16.5
CCCCN(CCCC)CCN1C[C@@H](c2ccc3c(c2)OCO3)[C@H](C(=O)O)[C@H]1c1ccc(OC)cc1	1590	794	–
COc1ccc([C@@H]2[C@@H](C(=O)O)[C@H](c3ccc4c(c3)OCO4)CN2CC(=O)N2CCCCC2)cc1	3040	350	–
CCCCC(=O)CN1C[C@@H](c2ccc3c(c2)OCO3)[C@H](C(=O)O)[C@H]1c1ccc(OC)cc1	2430	163	–
COc1ccc([C@@H]2[C@@H](C(=O)O)[C@H](c3ccc4c(c3)OCO4)CN2CC(=O)N(CC(C)C)CC(C)C)cc1	1820	16.2	0.6

Structure (SMILES)	IC50 [1] [nM]	IC50 (Endothelin-1 receptor) [nM]	IC50 (Endothelin receptor) [nM]
COc1ccc([C@@H]2[C@@H](C(=O)O)[C@H](c3ccc4c(c3)OCO4)CN2CC(N)=O)cc1	3270	–	–
COc1ccc([C@@H]2[C@@H](C(=O)O)[C@H](c3ccc4c(c3)OCO4)CN2CC(=O)N(C)Cc2ccccc2)cc1	1680	769	–
CCOCCN1C[C@@H](c2ccc3c(c2)OCO3)[C@H](C(=O)O)[C@H]1c1ccc(OC)cc1	9010	520	–
CCCCCN(CCCCC)C(=O)CN1C[C@@H](c2ccc3c(c2)OCO3)[C@H](C(=O)O)[C@H]1c1ccc(OC)cc1	313	0.56	–
CCCCN(CCCC)C(=O)C(C)N1CC(c2ccc3c(c2)OCO3)C(C(=O)O)C1c1ccc(OC)cc1 (centres undefined)	315	0.46	1.34
COc1ccc([C@@H]2[C@@H](C(=O)O)[C@H](c3ccc4c(c3)OCO4)CN2C(=O)N2CCOCC2)cc1	5020	1080	–
CCCCOCCN1C[C@@H](c2ccc3c(c2)OCO3)[C@H](C(=O)O)[C@H]1c1ccc(OC)cc1	3830	220	–
COc1ccc([C@@H]2[C@@H](C(=O)O)[C@H](c3ccc4c(c3)OCO4)CN2CC(=O)NC2CCCC2)cc1	307	16.2	23.8
CCCCNC(=O)N1C[C@@H](c2ccc3c(c2)OCO3)[C@H](C(=O)O)[C@H]1c1ccc(OC)cc1	11100	684	–
CCCCS(=O)(=O)N1C[C@@H](c2ccc3c(c2)OCO3)[C@H](C(=O)O)[C@H]1c1ccc(OC)cc1	6180	1240	–
COCCOCCN1C[C@@H](c2ccc3c(c2)OCO3)[C@H](C(=O)O)[C@H]1c1ccc(OC)cc1	3390	682	–
CCCOCCN1C[C@@H](c2ccc3c(c2)OCO3)[C@H](C(=O)O)[C@H]1c1ccc(OC)cc1	4970	108	–
CCCN(CCC)C(=O)CCN1C[C@@H](c2ccc3c(c2)OCO3)[C@H](C(=O)O)[C@H]1c1ccc(OC)cc1	4200	121	–
COc1ccc([C@@H]2[C@@H](C(=O)O)[C@H](c3ccc4c(c3)OCO4)CN2CC(=O)N(C)CC(C)(C)C)cc1	1800	112	–
COc1ccc([C@@H]2[C@@H](C(=O)O)[C@H](c3ccc4c(c3)OCO4)CN2C(=O)Nc2ccccc2)cc1	3510	2430	–
COCCN(CCOC)C(=O)CN1C[C@@H](c2ccc3c(c2)OCO3)[C@H](C(=O)O)[C@H]1c1ccc(OC)cc1	1070	4.45	4.91
COc1ccc([C@@H]2[C@@H](C(=O)O)[C@H](c3ccc4c(c3)OCO4)CN2CC(=O)N(CCC(C)C)CCC(C)C)cc1	41	0.43	–
COc1ccc([C@@H]2[C@@H](C(=O)O)[C@H](c3ccc4c(c3)OCO4)CN2CC(=O)N(C)C2CCCCC2)cc1	806	23.8	2.06
CCCCNC(=O)CN1C[C@@H](c2ccc3c(c2)OCO3)[C@H](C(=O)O)[C@H]1c1ccc(OC)cc1	1260	43	10
CCCCN(CC)C(=O)CN1C[C@@H](c2ccc3c(c2)OCO3)[C@H](C(=O)O)[C@H]1c1ccc(OC)cc1	531	0.85	0.33
CCCC#CCN1C[C@@H](c2ccc3c(c2)OCO3)[C@H](C(=O)O)[C@H]1c1ccc(OC)cc1	3590	765	–
COc1ccc([C@@H]2[C@@H](C(=O)O)[C@H](c3ccc4c(c3)OCO4)CN2CCOc2ccccc2)cc1	3400	885	–
COc1ccc(NC(=O)N2C[C@@H](c3ccc4c(c3)OCO4)[C@H](C(=O)O)[C@H]2c2ccc(OC)cc2)cc1	3790	781	–
CCCCCCN(C)C(=O)CN1C[C@@H](c2ccc3c(c2)OCO3)[C@H](C(=O)O)[C@H]1c1ccc(OC)cc1	404	7.61	1
